Experimental data taken from patent US11072616B2, “Cyclic peptides targeting alpha-4-beta-7 integrin” (Zealand Pharma A/S, priority 2015, dated 2021).

target: T1, integrin α4β7 (Homo sapiens, UniProt P13612+P26010); test: Integrin α4β7—MAdCAM-1 competition assay (ELISA); format: binding; conditions: not given
T1 sequence (P13612 34-977 limits assumed): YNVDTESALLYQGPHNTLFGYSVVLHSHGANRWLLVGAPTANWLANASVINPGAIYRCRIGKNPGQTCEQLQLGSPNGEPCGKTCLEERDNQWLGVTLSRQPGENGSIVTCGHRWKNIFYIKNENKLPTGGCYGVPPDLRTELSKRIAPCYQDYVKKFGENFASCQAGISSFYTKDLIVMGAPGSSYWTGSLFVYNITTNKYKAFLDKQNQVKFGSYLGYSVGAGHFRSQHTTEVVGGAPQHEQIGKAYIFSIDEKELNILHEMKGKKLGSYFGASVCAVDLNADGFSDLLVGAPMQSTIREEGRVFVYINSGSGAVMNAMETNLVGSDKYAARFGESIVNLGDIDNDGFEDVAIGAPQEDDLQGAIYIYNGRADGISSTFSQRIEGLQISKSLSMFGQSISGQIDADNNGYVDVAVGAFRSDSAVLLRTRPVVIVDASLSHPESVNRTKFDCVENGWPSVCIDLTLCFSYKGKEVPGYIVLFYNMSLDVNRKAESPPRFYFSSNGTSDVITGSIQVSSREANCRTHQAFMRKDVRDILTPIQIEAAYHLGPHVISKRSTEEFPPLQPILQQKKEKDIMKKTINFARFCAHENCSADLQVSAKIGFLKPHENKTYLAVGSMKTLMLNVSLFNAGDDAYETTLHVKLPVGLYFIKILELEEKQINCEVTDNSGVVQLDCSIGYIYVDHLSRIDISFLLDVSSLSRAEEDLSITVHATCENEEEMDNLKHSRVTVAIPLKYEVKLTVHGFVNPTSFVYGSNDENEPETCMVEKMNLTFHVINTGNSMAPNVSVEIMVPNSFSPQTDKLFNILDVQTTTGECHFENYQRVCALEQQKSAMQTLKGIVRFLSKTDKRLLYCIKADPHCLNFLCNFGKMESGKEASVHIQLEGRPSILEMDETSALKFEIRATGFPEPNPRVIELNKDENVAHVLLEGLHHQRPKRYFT
T1 sequence (P26010 20-723 limits assumed): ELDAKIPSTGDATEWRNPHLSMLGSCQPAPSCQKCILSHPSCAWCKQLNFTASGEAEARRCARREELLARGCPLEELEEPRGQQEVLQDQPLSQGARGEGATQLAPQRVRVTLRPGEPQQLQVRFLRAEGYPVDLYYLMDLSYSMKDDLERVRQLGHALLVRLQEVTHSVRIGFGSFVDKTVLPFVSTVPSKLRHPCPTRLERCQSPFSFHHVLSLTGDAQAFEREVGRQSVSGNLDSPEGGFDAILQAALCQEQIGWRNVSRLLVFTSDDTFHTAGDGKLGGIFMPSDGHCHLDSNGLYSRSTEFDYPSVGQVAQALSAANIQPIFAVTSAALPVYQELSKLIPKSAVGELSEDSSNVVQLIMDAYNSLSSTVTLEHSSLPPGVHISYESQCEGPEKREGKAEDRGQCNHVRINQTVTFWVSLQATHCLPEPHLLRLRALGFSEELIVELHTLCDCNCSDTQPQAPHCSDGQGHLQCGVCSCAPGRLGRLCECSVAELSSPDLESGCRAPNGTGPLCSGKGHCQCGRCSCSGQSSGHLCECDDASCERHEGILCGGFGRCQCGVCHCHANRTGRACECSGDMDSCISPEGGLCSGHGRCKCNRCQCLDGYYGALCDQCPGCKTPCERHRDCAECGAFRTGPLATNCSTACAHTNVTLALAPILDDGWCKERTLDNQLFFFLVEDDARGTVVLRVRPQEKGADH
Method: Integrin α4β7—MAdCAM-1 Competition Assay
The plate was incubated at 4° C. overnight. […] The plate was then incubated for 1 hour at room temperature. The plate was washed three times with wash buffer (50 mM Tris, 100 mM NaCl, 1 mM MnCl2, 0.05% Tween). To each well, 50 μl of compound diluted in assay buffer was added by transfer from a compound serial dilution plate. […] The plate was incubated at room temperature with shaking for 2 hours to reach binding equilibrium. Then the plate was washed three times in wash buffer and 100 μl anti-human IgG Fc specific-horseradish peroxidase (HRP) (Abcam, Ab97225) diluted at 1:2000 in assay buffer was added to each well. The plate was incubated at room temperature for 1 hour under agitation. The plates were then washed three times and 100 μl of 1,3′,5,5′-tetramethylbenxidie (TMB) was then added to each well.

Row | Structure (SMILES) | Selectivity ELISA
1 | CC(C)C[C@@H]1NC(=O)c2ccc(-c3ccc(N4CCN(C(=O)COCC(=O)N5CCN(c6ccc(-c7ccc8cc7CNC(=O)[C@@H]7CCCN7[C@H](C(=O)NC(C)(C)C)[C@H](C)NC(=O)[C@H]([C@@H](C)O)NC(=O)[C@H](CC(=O)O)NC(=O)[C@H](CC(C)C)NC8=O)cc6)CC5)CC4)cc3)c(c2)CNC(=O)[C@@H]2CCCN2[C@H](C(=O)NC(C)(C)C)[C@H](C)NC(=O)[C@H]([C@@H](C)O)NC(=O)[C@H](CC(=O)O)NC1=O [Compound 390] | 1.749

same assay, conditions: ratio a4b1 ELISA IC50 / a4b7 ELISA IC50

Row | Structure (SMILES) | Selectivity ELISA
2 | CCC[C@@H]1NC(=O)[C@@H]2CCCN2[C@H](C(=O)NC(C)(C)C)[C@H](C)NC(=O)[C@H]([C@@H](C)O)NC(=O)[C@H](CC(=O)O)NC(=O)[C@H](CC(C)C)NC1=O [Compound 71] | 4.4
3 | Cc1cccc(C)c1-c1cccc(C[C@@H]2NC(=O)[C@@H]3CCCN3[C@H](C(=O)NC(C)(C)C)[C@H](C)NC(=O)[C@H]([C@@H](C)O)NC(=O)[C@H](CC(=O)O)NC(=O)[C@H](CC(C)C)NC(=O)C[C@H](CCCCN)NC2=O)c1 [Compound 265] | 46.2
4 | CC(C)C[C@@H]1NC(=O)[C@H](C2CCCCC2)NC(=O)[C@@H]2CCCN2[C@H](C(=O)NC(C)(C)C)[C@H](C)NC(=O)[C@H]([C@@H](C)O)NC(=O)[C@H](CC(=O)O)NC1=O [Compound 91] | 14.5
5 | CC(C)C[C@@H]1NC(=O)CN(C)C(=O)[C@H](Cc2ccc(-c3ccccc3)cc2)NC(=O)[C@@H]2CCCN2[C@H](C(=O)NC(C)(C)C)[C@H](C)NC(=O)[C@H]([C@@H](C)O)NC(=O)[C@H](CC(=O)O)NC1=O [Compound 116] | 8.4
6 | CC(C)C[C@@H]1NC(=O)C[C@H](CCCCN)NC(=O)CN(Cc2ccccc2)C(=O)[C@@H]2CCCN2[C@H](C(=O)NC(C)(C)C)[C@H](C)NC(=O)[C@H]([C@@H](C)O)NC(=O)[C@H](CC(=O)O)NC1=O [Compound 296] | 94.8
7 | CC(C)C[C@@H]1NC(=O)CNC(=O)[C@H](Cc2ccc(CN)cc2)NC(=O)[C@@H]2CCCN2[C@H](C(=O)NC(C)(C)C)[C@H](C)NC(=O)[C@H]([C@@H](C)O)NC(=O)[C@H](CC(=O)O)NC1=O [Compound 165] | 22.8
8 | CC(C)C[C@@H]1NC(=O)c2ccc(-c3cccc4ncccc34)c(c2)CNC(=O)[C@@H]2CCCN2[C@H](C(=O)NC(C)(C)C)[C@H](C)NC(=O)[C@H]([C@@H](C)O)NC(=O)[C@H](CC(=O)O)NC1=O [Compound 347] | 1.3
9 | CC(C)C[C@@H]1NC(=O)[C@@H](CCCCN)NC(=O)[C@H](Cc2ccc(O)cc2)NC(=O)[C@@H]2CCCN2[C@H](C(=O)NC(C)(C)C)[C@H](C)NC(=O)[C@H]([C@@H](C)O)N(C)C(=O)[C@H](CC(=O)O)NC1=O [Compound 121] | 11.4
10 | C=CCOc1ccc(C[C@@H]2NC(=O)[C@@H]3CCCN3[C@H](C(=O)NC(C)(C)C)[C@H](C)NC(=O)[C@H]([C@@H](C)O)NC(=O)[C@H](CC(=O)O)NC(=O)[C@H](CC(C)C)NC(=O)[C@@H](C(C)C)NC2=O)cc1 [Compound 166] | 7.7
11 | CC(C)C[C@@H]1NC(=O)[C@H]2C[C@H](O)CN2C(=O)[C@H](Cc2ccc(CN)cc2)NC(=O)[C@@H]2CCCN2[C@H](C(=O)NC(C)(C)C)[C@H](C)NC(=O)[C@H]([C@@H](C)O)NC(=O)[C@H](CC(=O)O)NC1=O [Compound 152] | 13.2
12 | CC(C)C[C@@H]1NC(=O)[C@H]2CCCCN2C(=O)[C@H](Cc2ccccc2I)NC(=O)[C@@H]2CCCN2[C@H](C(=O)NC(C)(C)C)[C@H](C)NC(=O)[C@H]([C@@H](C)O)NC(=O)[C@H](CC(=O)O)NC1=O [Compound 133] | 5.3
13 | C=CCOc1ccc(C[C@@H]2NC(=O)[C@@H]3CCCN3[C@H](C(=O)NC(C)(C)C)[C@H](C)NC(=O)[C@H]([C@@H](C)O)NC(=O)[C@H](CC(=O)O)NC(=O)[C@H](CC(C)C)NC(=O)[C@@H](CO)NC2=O)cc1 [Compound 167] | 13.6
14 | CC(C)C[C@@H]1NC(=O)[C@H]2c3ccccc3CCN2C(=O)[C@@H]2CCCN2[C@H](C(=O)NC(C)(C)C)[C@H](C)NC(=O)[C@H]([C@@H](C)O)NC(=O)[C@H](CC(=O)O)NC1=O [Compound 98] | 2.7
15 | CC(C)C[C@@H]1NC(=O)[C@H](Cc2csc(-c3ccccn3)n2)NC(=O)[C@@H]2CCCN2[C@H](C(=O)NC(C)(C)C)[C@H](C)NC(=O)[C@H]([C@@H](C)O)NC(=O)[C@H](CC(=O)O)NC1=O [Compound 95] | 2.4
16 | CC(C)C[C@@H]1NC(=O)c2ccc(Br)c(c2)CNC(=O)[C@H](Cc2ccc(O)cc2)NC(=O)[C@@H]2CCCN2[C@H](C(=O)NC(C)(C)C)[C@H](C)NC(=O)[C@H]([C@@H](C)O)NC(=O)[C@H](CC(=O)O)NC1=O [Compound 336] | 5.6
17 | CC[C@H](C)[C@@H]1NC(=O)[C@H](CC(=O)O)NC(=O)[C@H](CC(C)C)NC(=O)C[C@@H](CCCCN)NC(=O)[C@H](Cc2ccccc2)NC(=O)[C@@H]2CCCN2[C@H](C(=O)NC(C)(C)C)[C@H](C)NC1=O [Compound 220] | 18.2
18 | CC(C)C[C@@H]1NC(=O)C[C@H](CCCCN)NC(=O)[C@H](Cc2ccccc2-c2ccc(N3CCNCC3)cc2)NC(=O)[C@@H]2CCCN2[C@H](C(=O)NC(C)(C)C)[C@H](C)NC(=O)[C@H]([C@@H](C)O)NC(=O)[C@H](CC(=O)O)NC1=O [Compound 271] | 34.6
19 | C=CCOc1ccc(C[C@@H]2NC(=O)[C@@H]3CCCN3[C@H](C(=O)NC(C)(C)C)[C@H](C)NC(=O)[C@H]([C@@H](C)O)NC(=O)[C@H](CC(=O)O)NC(=O)[C@H](CC(C)C)NC(=O)CNC2=O)cc1 [Compound 163] | 11.0
20 | CC(C)C[C@@H]1NC(=O)[C@H]2CCCCN2C(=O)[C@H](Cc2ccccc2-c2ccccc2)NC(=O)[C@@H]2CCCN2[C@H](C(=O)NC(C)(C)C)[C@H](C)NC(=O)[C@H]([C@@H](C)O)NC(=O)[C@H](CC(=O)O)NC1=O [Compound 134] | 7.6
21 | CC(C)C[C@@H]1NC(=O)[C@H]2C[C@H](O)CN2C(=O)[C@H](Cc2ccc(O)cc2)NC(=O)[C@@H]2CCCN2[C@H](C(=O)NC(C)(C)C)[C@H](C)NC(=O)[C@H]([C@@H](C)O)NC(=O)[C@H](CC(=O)O)NC1=O [Compound 140] | 9.6
22 | CC(C)C[C@@H]1NC(=O)CN(C)C(=O)[C@H](Cc2csc(-c3cccnc3)n2)NC(=O)[C@@H]2CCCN2[C@H](C(=O)NC(C)(C)C)[C@H](C)NC(=O)[C@H]([C@@H](C)O)NC(=O)[C@H](CC(=O)O)NC1=O [Compound 181] | 12.6
23 | CC(C)C[C@@H]1NC(=O)[C@H](Cc2ccc(-c3ccccc3)cc2)NC(=O)[C@@H]2C[C@@H](F)CN2[C@H](C(=O)NC(C)(C)C)[C@H](C)NC(=O)[C@H]([C@@H](C)O)NC(=O)[C@H](CC(=O)O)NC1=O [Compound 46] | 2.4
24 | CC(C)C[C@@H]1NC(=O)[C@@H](CCCCN)NC(=O)[C@H](Cc2cccc3ccccc23)NC(=O)[C@@H]2CCCN2[C@H](C(=O)NC(C)(C)C)[C@H](C)NC(=O)[C@H]([C@@H](C)O)NC(=O)[C@H](CC(=O)O)NC1=O [Compound 120] | 19.1
